Experimental data: patent publication US20220047475A1, “COSMETIC USE OF A SHORT CHAIN FATTY ACID (SCFA) FOR PREVENTING AND/OR TREATING DRY SKIN AND/OR AGED SKIN” (L'OREAL, priority 2018, published 2022)

How the values were obtained:
sebocytes [1] = test: Quantification of secreted triglycerides (TGs) in sebocyte supernatants; assay type: cell-based; conditions: for % of excreted TGs (compared to control) / FC (compared to control) of excreted TGs: 5 mmol.L^−1, 24 h
Experimental: Cell culture. Vials containing 3T3 mitomycine treated cells stored in 20% DMSO (Dimethylsulf oxide, Sigma Ref. D2650) in liquid nitrogen have been thawed in a water bath at 37° C. and directly washed with prewarmed G7F culture media (Table 1). 3T3m cells were plated at 40.10^3 cells·cm^2 in a 175 cm^2 flask (Thermoscientific Ref. 159910) and incubated 2 hours at 37° C., 5% CO2. Sebocytes were obtained from primary cell line and stored in 10% DMSO in liquid nitrogen. Vials containing sebocytes were thawed in a water bath at 37° C. and directly washed with prewarmed G7F culture media. Sebocytes were plated at 2600 cells·cm^2 in a 175 cm^2 flask containing attached 3T3m cells and incubated (37° C., 5% CO2) to reach 70-80% confluence. After 5 days, cells were harvested using trypsin (Gibco Ref. 25300) and transferred in 96 well plates (10×10^3 cells per well, Greiner Bio-one Ref. 655956) and incubated (37° C., 5% CO2).
Cell treatment. After 24 hours, cell media was replaced by modified cell media (G7F w/o hydrocortisone and w/o antibiotic-antimycotic) supplemented with: modified cell media (control), sodium acetate (CH3COONa, Sigma Ref. 32319), sodium propionate (CH3CH2COONa, Sigma Ref. P1880), sodium butyrate (CH3(CH2)2COONa Sigma Ref. 303410), valeric acid (CH3(CH2)3COOH, Sigma Ref. 75054). For valeric acid, the pH in modified cell media was neutralized with NaOH (Sodium hydroxide, Sigma 283060). Palmitic acid (C16:0, Cayman Ref. 10006627) and linoleic acid (C18:2 cis 9.12, Sigma Ref. L1376) were both dissolved in pure ethanol (Merck Ref. 1.00983) for a final concentration per well of 60 μmar′. For these treatments, modified cell media supplemented with pure ethanol was used as controls. Supernatants (25%) sampled in exponential and stationary phases were neutralized with NaOH and were controlled with modified cell media supplemented at 25% with pure bacterial culture media. All conditions were repeated 8 times (n=8) for SOFA experiments and 24 times (n=24) for supernatants assays. […]
Triglycerides quantification. Assays have been realized using Triglycerides Assays Kit—Quantification (Abcam, ref. Ab65336) following manufacturer's instructions. Each supernatant of the 8 replicates have been sampled (50 μl) and analyzed following the colorimetric detection method of the kit (OD 570 nm) using a plate reader Infinite 200PRO (Tecan).
Holocrine secretion is the final step of sebogenic process wherein the mature cells burst to release the lipid contents. Promotion of holocrine secretion by SOFA was based on observations and interpretations of a lower number of cells in association with an enlargement of nuclear area.

sebocytes [2] = test: High content screening (HCS) imaging of sebocytes: lipid droplets (BODIPY) and nuclei (Hoechst); assay type: cell-based; conditions: for Nuclear count / Size of nucleus: 5 mmol.L^−1, mean ± SD, holocrine secretion
Experimental: Cell culture. […] D2650) in liquid nitrogen have been thawed in a water bath at 37° C. and directly washed with prewarmed […] culture media (Table 1). 3T3m cells were plated at 40.10^3 cells·cm^2 in a 175 cm^2 flask (Thermoscientific Ref. 159910) and incubated 2 hours at 37° C., 5% CO2. […] Vials containing sebocytes were thawed in a water bath at 37° C. and directly washed with prewarmed […] culture media. Sebocytes were plated at 2600 cells·cm^2 in a 175 cm^2 flask containing attached 3T3m cells and incubated (37° C., 5% CO2) to reach 70-80% confluence. After 5 days, cells were harvested using trypsin (Gibco Ref. 25300) and transferred in 96 well plates (10×10^3 cells per well, Greiner Bio-one Ref. 655956) and incubated (37° C., 5% CO2). Cell treatment. […] For valeric acid, the pH in modified cell media was neutralized with NaOH (Sodium hydroxide, Sigma 283060). […]) were both dissolved in pure ethanol (Merck Ref. 1.00983) for a final concentration per well of 60 μmar'. For these treatments, modified cell media supplemented with pure ethanol was used as controls. Supernatants (25%) sampled in exponential and stationary phases were neutralized with NaOH and were controlled with modified cell media supplemented at 25% with pure bacterial culture media. All conditions were repeated 8 times (n=8) for SOFA experiments and 24 times (n=24) for supernatants assays. Microplates were incubated 48 hours (37° C., 5% CO2) and directly sampled and/or stained and analyzed. Cell staining. […] Lipid droplets were stained with BODIPY (Invitrogen Ref. […]) diluted in DPBS solution supplemented with delipidated BSA (Bovin Serum Albumin, Sigma Ref. A7906). Nuclei were stained with Hoechst (Invitrogen, Ref. H3570) diluted in DPBS solution. High content imaging, images analysis and statistics. […] Images were analyzed using the MetaXpress image based module Transfluor (Molecular Devices). Results were exported into GraphPad Prism (version 7.01) to determine statistical significance using One-way ANOVA and expressed on bar graph as mean±SD or on box plot±min and max. *: […] Sebocytes were seeded in 96 well plates, followed by treatment with SOFA and/or LCFAs with at least 8 replicate wells (1 column) for each condition.

[3] = sebocytes, 2.5, 5, 10 and 15 mmol·l^−1

CC(=O)[O-].[Na+] [Acetate, sodium acetate, reference compound]
% of excreted TGs (compared to control) (sebocytes [1]): −10% =
FC (compared to control) of excreted TGs (sebocytes [1]): FC = 0.90, =
de novo lipid induction compared to the control (sebocytes [2]; sebocytes, 5 mmol.L^−1): significant
Nuclear count (sebocytes [2]; sebocytes): 18574 ± 2148 =
Size of nucleus (sebocytes [2]; sebocytes): 215 ± 5 =
Nuclear count (sebocytes [2]; sebocytes, listed as acetate): no effect
Size of nucleus (sebocytes [2]; sebocytes, listed as acetate): no effect

CCC(=O)[O-].[Na+] [Proprionate, sodium propionate]
% of excreted TGs (compared to control) (sebocytes [1]; listed as P5): +20%
FC (compared to control) of excreted TGs (sebocytes [1]; listed as P5): ~1.2
nuclear count per well (sebocytes [2]; [3]): decrease in the nuclear count per well
size of LDs compared to controls (sebocytes [2]; [3]): LDs increased in size as the concentration of propionate increased
number of LDs per cell (sebocytes [2]; sebocytes, pure propionate 5 mmol·l^−1): about 12 LDs/cell

CCCC(=O)[O-].[Na+] [butyrate, sodium butyrate]
FC of TGs excreted (sebocytes [1]; 15 mmol·l−1, 24 h): FC of TGs in B15>FC of TGs in B5
nuclear count per well (sebocytes [2]; [3]): decrease in the nuclear count per well

CCCCC(=O)O [valerate, valeric acid]
% of TGs excreted (sebocytes [1]; 15 mmol·l−1, 24 h): +100%
FC of TGs excreted (sebocytes [1]; 15 mmol·l−1, 24 h): ~2
nuclear count per well (sebocytes [2]; [3]): decrease in the nuclear count per well
